ChEMBL document CHEMBL4354801, “Design, Synthesis, and Structure-Activity Relationships of 1,2,3-Triazole Benzenesulfonamides as New Selective Leucine-Zipper and Sterile-α Motif Kinase (ZAK) Inhibitors” (J Med Chem, 2020)
Each block holds one compound with its values, some of them ahead of it.

Tests used:
[1] = biological target: T1, Mitogen-activated protein kinase kinase kinase 20 (Homo sapiens, UniProt Q9NYL2); assay: Inhibition of N-terminal GST-tagged recombinant human full-length ZAK expressed in baculovirus infected Sf9 insect cells using MBP as substrate after 30 mins by ADP-Glo assay
T1 sequence (Q9NYL2 whole entry): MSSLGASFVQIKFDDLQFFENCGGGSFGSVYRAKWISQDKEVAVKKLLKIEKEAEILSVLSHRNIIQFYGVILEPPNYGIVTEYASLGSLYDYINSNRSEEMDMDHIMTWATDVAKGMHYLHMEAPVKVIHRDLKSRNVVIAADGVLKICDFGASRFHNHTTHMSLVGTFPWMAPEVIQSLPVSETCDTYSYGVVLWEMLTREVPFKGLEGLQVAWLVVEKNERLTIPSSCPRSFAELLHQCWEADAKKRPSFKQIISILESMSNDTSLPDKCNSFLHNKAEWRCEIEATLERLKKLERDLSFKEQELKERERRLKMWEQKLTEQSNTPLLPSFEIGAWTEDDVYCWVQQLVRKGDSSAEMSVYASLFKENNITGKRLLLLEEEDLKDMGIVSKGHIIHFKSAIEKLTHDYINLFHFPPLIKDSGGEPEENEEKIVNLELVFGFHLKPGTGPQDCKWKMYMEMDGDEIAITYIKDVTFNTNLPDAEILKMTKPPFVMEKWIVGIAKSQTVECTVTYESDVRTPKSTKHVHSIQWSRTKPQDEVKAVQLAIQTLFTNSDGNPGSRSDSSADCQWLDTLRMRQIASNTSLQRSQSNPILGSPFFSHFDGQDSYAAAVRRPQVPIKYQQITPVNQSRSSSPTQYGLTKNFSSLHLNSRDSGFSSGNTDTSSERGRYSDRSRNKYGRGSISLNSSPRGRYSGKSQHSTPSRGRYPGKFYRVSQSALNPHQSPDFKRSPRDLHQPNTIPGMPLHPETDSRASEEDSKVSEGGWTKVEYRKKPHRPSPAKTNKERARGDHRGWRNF

[2] = biological target: Serine/threonine-protein kinase B-raf (Homo sapiens, UniProt P15056, V600E); assay: Inhibition of recombinant human B-RAF V600E mutant using Ser/Thr3 as substrate after 1 hr by FRET-based Z'-Lyte assay
Serine/threonine-protein kinase B-raf, sequence (P15056 2-766 V600E limits assumed): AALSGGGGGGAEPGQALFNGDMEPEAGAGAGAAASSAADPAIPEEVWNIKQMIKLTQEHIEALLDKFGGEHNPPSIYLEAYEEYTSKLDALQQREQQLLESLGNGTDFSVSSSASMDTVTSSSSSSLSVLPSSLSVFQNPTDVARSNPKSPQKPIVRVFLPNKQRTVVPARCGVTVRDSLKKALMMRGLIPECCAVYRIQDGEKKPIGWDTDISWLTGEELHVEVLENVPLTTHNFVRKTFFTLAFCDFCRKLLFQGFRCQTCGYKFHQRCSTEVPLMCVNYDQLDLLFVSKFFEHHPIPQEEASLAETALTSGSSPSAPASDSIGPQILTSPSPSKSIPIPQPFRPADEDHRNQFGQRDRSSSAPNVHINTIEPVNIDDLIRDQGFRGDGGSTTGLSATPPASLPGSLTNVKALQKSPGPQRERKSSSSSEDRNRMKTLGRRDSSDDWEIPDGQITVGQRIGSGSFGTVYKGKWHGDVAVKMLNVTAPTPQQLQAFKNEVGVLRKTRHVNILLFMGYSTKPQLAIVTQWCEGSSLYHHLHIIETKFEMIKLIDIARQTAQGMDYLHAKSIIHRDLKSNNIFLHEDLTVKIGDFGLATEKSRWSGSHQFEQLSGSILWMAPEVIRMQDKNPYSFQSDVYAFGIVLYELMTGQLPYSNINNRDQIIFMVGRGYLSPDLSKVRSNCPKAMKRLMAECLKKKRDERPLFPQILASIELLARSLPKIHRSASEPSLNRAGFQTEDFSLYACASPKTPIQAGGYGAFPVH

[3] = biological target: T1, Mitogen-activated protein kinase kinase kinase 20; assay: Binding affinity to ATP-binding site of human ZAK expressed in Escherichia coli by active site-dependent competition binding assay
[4] = biological target: Tyrosine-protein kinase Lck (Homo sapiens, UniProt P06239); assay: Binding affinity to human LCK
[5] = biological target: Receptor-interacting serine/threonine-protein kinase 2 (Homo sapiens, UniProt O43353); assay: Binding affinity to human RIPK2
Receptor-interacting serine/threonine-protein kinase 2, sequence (O43353 whole entry, the tested form may be a part): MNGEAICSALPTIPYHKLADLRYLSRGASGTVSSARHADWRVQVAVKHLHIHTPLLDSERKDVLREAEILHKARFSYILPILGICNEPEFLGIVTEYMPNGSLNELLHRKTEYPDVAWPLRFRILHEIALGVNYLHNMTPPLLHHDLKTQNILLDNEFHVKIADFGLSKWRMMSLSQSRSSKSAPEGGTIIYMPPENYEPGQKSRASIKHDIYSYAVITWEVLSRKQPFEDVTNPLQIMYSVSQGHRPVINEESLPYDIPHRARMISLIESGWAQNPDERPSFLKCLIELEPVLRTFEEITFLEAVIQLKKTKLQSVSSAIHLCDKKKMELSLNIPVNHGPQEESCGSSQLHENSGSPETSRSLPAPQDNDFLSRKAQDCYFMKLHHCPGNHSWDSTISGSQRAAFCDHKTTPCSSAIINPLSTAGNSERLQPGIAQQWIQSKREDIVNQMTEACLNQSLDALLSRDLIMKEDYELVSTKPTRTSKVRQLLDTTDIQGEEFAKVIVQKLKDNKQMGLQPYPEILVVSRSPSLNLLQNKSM

LIM domain kinase 1 = LIM domain kinase 1 (Homo sapiens, UniProt P53667); assay: Binding affinity to human LIMK1
[6] = Effect on ZAKalpha protein expression in rat H9C2 cells by Western blot analysis
[7] = Cmax in Sprague-Dawley rat at 10 mg/kg, po by HPLC/MS analysis; assay type: ADME, organism-based; parameters: dose 10 mg/kg, route oral; conditions: in vivo
[8] = Clearance in Sprague-Dawley rat at 2.5 mg/kg, iv by HPLC/MS analysis; assay type: ADME, organism-based; conditions: in vivo
[9] = Half life in Sprague-Dawley rat at 2.5 mg/kg, iv by HPLC/MS analysis; assay type: ADME, organism-based; conditions: in vivo
[10] = AUC (0 to t) in Sprague-Dawley rat at 2.5 mg/kg, iv by HPLC/MS analysis; assay type: ADME, organism-based; conditions: in vivo
Rattus norvegicus [11] = assay: Anti-hypertrophic cardiomyopathy activity in SHR rat assessed as whole heart weight level elevation at 2.5 mg/kg, po once daily for 8 weeks (reference value: 1.23 +/- 0.006 g); assay type: functional
Rattus norvegicus [12] = assay: Anti-hypertrophic cardiomyopathy activity in SHR rat assessed as left ventricular weight level elevation at 2.5 mg/kg, po once daily for 8 weeks (reference value: 0.89 +/- 0.005 g); assay type: functional
[13] = AUC (0 to infinity) in Sprague-Dawley rat at 2.5 mg/kg, iv by HPLC/MS analysis; assay type: ADME, organism-based; parameters: dose 2.5 mg/kg, route intravenous, time infinity; conditions: in vivo
Rattus norvegicus [14] = assay: Anti-hypertrophic cardiomyopathy activity in SHR rat assessed as whole heart weight level elevation at 10 mg/kg, po once daily for 8 weeks (reference value: 1.23 +/- 0.006 g); assay type: functional
LIM domain kinase 2 = LIM domain kinase 2 (Homo sapiens, UniProt P53671); assay: Binding affinity to human LIMK2
LIM domain kinase 2, sequence (P53671 whole entry, the tested form may be a part): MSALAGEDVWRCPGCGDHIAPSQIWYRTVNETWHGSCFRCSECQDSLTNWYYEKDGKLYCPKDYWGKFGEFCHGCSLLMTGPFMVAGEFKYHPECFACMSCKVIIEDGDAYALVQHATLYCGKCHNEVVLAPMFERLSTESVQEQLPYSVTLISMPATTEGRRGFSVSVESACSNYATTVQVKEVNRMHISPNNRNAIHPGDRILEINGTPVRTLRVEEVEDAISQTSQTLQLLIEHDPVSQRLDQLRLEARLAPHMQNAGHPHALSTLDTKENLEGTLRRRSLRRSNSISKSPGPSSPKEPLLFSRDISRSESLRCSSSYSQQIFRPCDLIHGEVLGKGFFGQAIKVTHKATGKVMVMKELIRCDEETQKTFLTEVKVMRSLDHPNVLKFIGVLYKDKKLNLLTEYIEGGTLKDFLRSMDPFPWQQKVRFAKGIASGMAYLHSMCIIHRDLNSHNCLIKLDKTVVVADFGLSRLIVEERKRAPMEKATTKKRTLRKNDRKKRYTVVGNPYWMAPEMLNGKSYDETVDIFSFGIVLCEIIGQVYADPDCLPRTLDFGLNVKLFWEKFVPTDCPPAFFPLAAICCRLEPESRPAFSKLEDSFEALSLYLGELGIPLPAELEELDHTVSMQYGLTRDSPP

[15] = Cmax in Sprague-Dawley rat at 2.5 mg/kg, iv by HPLC/MS analysis; assay type: ADME, organism-based; parameters: dose 2.5 mg/kg, route intravenous; conditions: in vivo
[16] = Oral bioavailability in Sprague-Dawley rat at 10 mg/kg by HPLC/MS analysis; assay type: ADME, organism-based; conditions: in vivo
[17] = AUC (0 to t) in Sprague-Dawley rat at 10 mg/kg, po by HPLC/MS analysis; assay type: ADME, organism-based; conditions: in vivo
[18] = AUC (0 to infinity) in Sprague-Dawley rat at 10 mg/kg, po by HPLC/MS analysis; assay type: ADME, organism-based; parameters: dose 10 mg/kg, route oral, time infinity; conditions: in vivo
[19] = biological target: Tyrosine-protein kinase Blk (Homo sapiens, UniProt P51451); assay: Binding affinity to human BLK
[20] = Half life in Sprague-Dawley rat at 10 mg/kg, po by HPLC/MS analysis; assay type: ADME, organism-based; conditions: in vivo
[21] = biological target: Receptor-type tyrosine-protein kinase FLT3 (Homo sapiens, UniProt P36888, F691L); assay: Binding affinity to human FLT3 F691L mutant
Receptor-type tyrosine-protein kinase FLT3, sequence (P36888 27-993 F691L limits assumed): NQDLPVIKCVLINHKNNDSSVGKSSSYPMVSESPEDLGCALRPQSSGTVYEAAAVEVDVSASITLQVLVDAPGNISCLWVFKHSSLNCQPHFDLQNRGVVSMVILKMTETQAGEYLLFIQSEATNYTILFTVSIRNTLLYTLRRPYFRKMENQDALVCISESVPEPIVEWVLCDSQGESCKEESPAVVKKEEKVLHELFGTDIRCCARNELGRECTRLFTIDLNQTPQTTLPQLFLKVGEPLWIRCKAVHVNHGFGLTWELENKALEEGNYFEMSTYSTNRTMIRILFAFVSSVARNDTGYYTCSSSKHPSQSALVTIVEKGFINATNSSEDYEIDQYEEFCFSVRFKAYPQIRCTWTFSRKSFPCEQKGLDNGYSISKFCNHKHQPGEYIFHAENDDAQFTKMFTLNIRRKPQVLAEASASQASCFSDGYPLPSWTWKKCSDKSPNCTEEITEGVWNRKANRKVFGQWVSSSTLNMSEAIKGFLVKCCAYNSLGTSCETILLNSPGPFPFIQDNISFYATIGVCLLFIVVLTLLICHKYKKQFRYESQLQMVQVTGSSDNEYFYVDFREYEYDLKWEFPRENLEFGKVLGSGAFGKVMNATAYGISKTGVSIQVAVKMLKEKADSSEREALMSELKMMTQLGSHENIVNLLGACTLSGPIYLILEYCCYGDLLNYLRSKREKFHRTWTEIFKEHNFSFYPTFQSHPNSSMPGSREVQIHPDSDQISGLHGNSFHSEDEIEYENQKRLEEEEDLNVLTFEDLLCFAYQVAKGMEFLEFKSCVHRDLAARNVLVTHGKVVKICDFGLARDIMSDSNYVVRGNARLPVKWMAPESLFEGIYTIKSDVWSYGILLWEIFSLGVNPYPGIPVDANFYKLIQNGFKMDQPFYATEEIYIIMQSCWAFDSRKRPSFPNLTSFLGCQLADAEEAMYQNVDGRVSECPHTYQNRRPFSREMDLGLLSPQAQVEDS

Rattus norvegicus [22] = assay: Anti-hypertrophic cardiomyopathy activity in SHR rat assessed as left ventricular weight level elevation at 10 mg/kg, po once daily for 8 weeks (reference value: 0.89 +/- 0.005 g); assay type: functional
[23] = biological target: T2, Tyrosine-protein kinase ABL1 (Homo sapiens, UniProt P00519); assay: Inhibition of human ABL1
T2 sequence (P00519 whole entry): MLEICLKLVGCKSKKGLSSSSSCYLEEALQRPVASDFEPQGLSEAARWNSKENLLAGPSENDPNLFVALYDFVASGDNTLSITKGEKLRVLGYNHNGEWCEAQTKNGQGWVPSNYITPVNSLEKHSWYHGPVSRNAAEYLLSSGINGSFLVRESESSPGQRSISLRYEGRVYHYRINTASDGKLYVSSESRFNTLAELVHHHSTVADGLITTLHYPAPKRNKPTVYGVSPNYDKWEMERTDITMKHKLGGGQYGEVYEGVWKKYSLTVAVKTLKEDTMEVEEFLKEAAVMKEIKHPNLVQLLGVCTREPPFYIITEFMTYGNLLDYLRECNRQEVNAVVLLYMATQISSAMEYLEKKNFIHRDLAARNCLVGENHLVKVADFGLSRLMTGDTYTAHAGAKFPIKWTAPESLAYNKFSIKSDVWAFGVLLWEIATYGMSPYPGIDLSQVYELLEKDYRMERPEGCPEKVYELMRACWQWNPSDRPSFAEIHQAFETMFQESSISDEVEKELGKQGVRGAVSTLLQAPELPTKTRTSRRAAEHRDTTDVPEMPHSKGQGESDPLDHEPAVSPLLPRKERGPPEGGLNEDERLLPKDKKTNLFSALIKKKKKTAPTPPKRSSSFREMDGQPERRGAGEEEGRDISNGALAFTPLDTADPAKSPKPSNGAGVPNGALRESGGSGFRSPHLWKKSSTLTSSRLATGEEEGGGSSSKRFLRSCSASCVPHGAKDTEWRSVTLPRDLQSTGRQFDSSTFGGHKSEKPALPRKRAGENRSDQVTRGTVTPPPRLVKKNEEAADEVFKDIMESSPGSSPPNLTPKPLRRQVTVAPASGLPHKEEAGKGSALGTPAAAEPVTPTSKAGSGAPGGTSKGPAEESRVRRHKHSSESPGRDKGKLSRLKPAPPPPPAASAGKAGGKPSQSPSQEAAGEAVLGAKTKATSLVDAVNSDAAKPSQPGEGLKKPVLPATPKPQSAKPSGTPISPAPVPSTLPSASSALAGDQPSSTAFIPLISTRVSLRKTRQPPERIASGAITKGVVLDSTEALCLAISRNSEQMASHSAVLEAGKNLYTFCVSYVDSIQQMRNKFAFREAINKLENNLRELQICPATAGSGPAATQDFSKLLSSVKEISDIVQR

[24] = biological target: T1, Mitogen-activated protein kinase kinase kinase 20; assay: Binding affinity to human ZAK
[25] = biological target: T2, Tyrosine-protein kinase ABL1; assay: Binding affinity to human ABL1

Compound: COc1n[nH]c2ncc(C#Cc3c(F)ccc(NS(=O)(=O)c4cccc(Cl)c4)c3F)cc12
IC50 [1]: 14.7 nM | IC50 [2]: > 1000 nM

Compound: COc1n[nH]c2ncc(-c3cn(-c4c(F)ccc(NC(=O)Cc5cccc(Cl)c5)c4F)nn3)cc12
IC50 [1]: 85.7 nM | IC50 [2]: 83.1 nM

Compound: COc1n[nH]c2ncc(-c3nnc(-c4c(F)ccc(NS(=O)(=O)c5cccc(Cl)c5)c4F)o3)cc12
IC50 [1]: 63.3 nM | IC50 [2]: > 1000 nM

Compound: Nc1ccc(-c2cn(-c3c(F)ccc(NS(=O)(=O)c4cccc(Cl)c4)c3F)nn2)cn1
IC50 [1]: 46.2 nM | IC50 [2]: > 1000 nM

Compound: COc1n[nH]c2ncc(-c3cn(-c4cc(NS(=O)(=O)c5cccc(Cl)c5)ccc4F)nn3)cc12
IC50 [1]: 5.7 nM | IC50 [2]: 334 nM

Compound: COc1n[nH]c2ncc(-c3ncc(-c4c(F)ccc(NS(=O)(=O)c5cccc(Cl)c5)c4F)[nH]3)cc12
IC50 [1]: 983 nM | IC50 [2]: > 1000 nM

Compound: COc1n[nH]c2ncc(-c3nc(-c4c(F)ccc(NS(=O)(=O)c5cccc(Cl)c5)c4F)no3)cc12
IC50 [1]: 29 nM | IC50 [2]: > 1000 nM

Compound: COc1n[nH]c2ncc(-c3cn(-c4cccc(NS(=O)(=O)c5cccc(Cl)c5)c4)nn3)cc12
IC50 [1]: 24.7 nM | IC50 [2]: > 1000 nM

Compound: COc1n[nH]c2ncc(-c3cn(-c4c(F)ccc(NC(=O)Nc5cccc(Cl)c5)c4F)nn3)cc12
IC50 [1]: 53 nM | IC50 [2]: 51.6 nM

Compound: Nc1ncc(-c2cn(-c3c(F)ccc(NS(=O)(=O)c4cccc(Cl)c4)c3F)nn2)cn1
IC50 [1]: 8.9 nM | IC50 [2]: > 1000 nM

Continued, in another order:

IC50 [1]: 3.8 nM | IC50 [2]: 39 nM
Compound: COc1n[nH]c2ncc(-c3cn(-c4c(F)ccc(NS(=O)(=O)c5ccccc5)c4F)nn3)cc12

IC50 [1]: 4.5 nM | IC50 [2]: 856 nM
Compound: COc1n[nH]c2ncc(-c3cn(-c4c(F)ccc(NS(=O)(=O)c5ccc6ccccc6c5)c4F)nn3)cc12

IC50 [1]: 6.9 nM | IC50 [2]: 190 nM
Compound: COc1n[nH]c2ncc(-c3cn(-c4c(F)ccc(NS(=O)(=O)c5cccc(C(C)C)c5)c4F)nn3)cc12

Kd [3]: 8 nM | Kd [4]: 160 nM | Kd [5]: 57 nM | Kd (LIM domain kinase 1): 23 nM | Cmax [7]: 16400 ng/mL | clearance [8]: 1.53 mL/min/kg | half-life [9]: 1.6 h | IC50 [1]: 4 nM | AUC(0-t) [10]: 27400 ng·h/mL | AUC(0-inf) [13]: 27900 ng·h/mL | Kd (LIM domain kinase 2): 63 nM | Cmax [15]: 34200 ng/mL | bioavailability [16]: 65.3% | AUC(0-t) [17]: 71600 ng·h/mL | AUC(0-inf) [18]: 71800 ng·h/mL | Kd [19]: 190 nM | half-life [20]: 1.7 h | Kd [21]: 530 nM | IC50 [2]: > 1000 nM | IC50 [23]: 156 nM | Kd [24]: 8 nM | Kd [25]: 15 nM
Compound: COc1n[nH]c2ncc(-c3cn(-c4c(F)ccc(NS(=O)(=O)c5cccc(-c6ccccc6)c5)c4F)nn3)cc12
Activity [6]: Non-Toxic | Activity (Rattus norvegicus [11]): 1.18 g | Activity (Rattus norvegicus [12]): 0.82 g | Activity (Rattus norvegicus [14]): 1.13 g | Activity (Rattus norvegicus [22]): 0.78 g

IC50 [1]: 4.4 nM | IC50 [2]: 453 nM
Compound: COc1n[nH]c2ncc(-c3cn(-c4c(F)ccc(NS(=O)(=O)c5cccc(C)c5)c4F)nn3)cc12

IC50 [1]: 4.2 nM | IC50 [2]: 126 nM
Compound: COc1n[nH]c2ncc(-c3cn(-c4c(F)ccc(NS(=O)(=O)c5cccc6ccccc56)c4F)nn3)cc12

IC50 [1]: 54.3 nM | IC50 [2]: 11.4 nM
Compound: COc1n[nH]c2ncc(-c3cn(-c4c(F)ccc(NC(=O)c5cccc(Cl)c5)c4F)nn3)cc12

IC50 [1]: 1.9 nM | IC50 [2]: 198 nM
Compound: COc1n[nH]c2ncc(-c3cn(-c4c(F)ccc(NS(=O)(=O)c5cccc(Cl)c5)c4F)nn3)cc12

IC50 [1]: 2.3 nM | IC50 [2]: 272 nM
Compound: COc1cccc(S(=O)(=O)Nc2ccc(F)c(-n3cc(-c4cnc5[nH]nc(OC)c5c4)nn3)c2F)c1

IC50 [1]: 2.1 nM | IC50 [2]: 272 nM
Compound: COc1n[nH]c2ncc(-c3cn(-c4c(F)ccc(NS(=O)(=O)c5cccc(Br)c5)c4F)nn3)cc12

IC50 [1]: 3 nM | IC50 [2]: 795 nM
Compound: COc1n[nH]c2ncc(-c3cn(-c4cccc(NS(=O)(=O)c5cccc(Cl)c5)c4F)nn3)cc12

IC50 [1]: 3.3 nM | IC50 [2]: 470 nM
Compound: COc1n[nH]c2ncc(-c3cn(-c4c(F)ccc(NS(=O)(=O)c5cccc(C#N)c5)c4F)nn3)cc12

IC50 [1]: 413 nM | IC50 [2]: 436 nM
Compound: COc1n[nH]c2ncc(-c3cn(-c4c(Cl)ccc(NS(=O)(=O)c5cccc(Cl)c5)c4Cl)nn3)cc12
